The subject of test [1] is EGFR L858R phosphorylation (pEGFR). Description: Inhibitor activity on EGFR phosphorylation (pEGFR AlphaLISA), L858R. Type of test: cell-based. The conditions noted are these: 2 hours. A general note: Alpha assays give light when donor and acceptor beads are brought close together.
Test [2] deals with EGFR L858R/C797S phosphorylation (pEGFR). Nature of the test: Inhibitor activity on EGFR phosphorylation (pEGFR AlphaLISA), L858R/C797S. The format is cell-based. Conditions: 2 hours.
The next test has as its system BaF3 Del19. Nature of the test: Ba/F3 cell viability (CellTiter-Glo), EGFR Del19. The format is cell-based, murine. The conditions noted are these: Mus musculus, 72 hours. Background: ATP-based viability assays read luminescence as a measure of living cells.
Another test relates to BaF3 L858R/C797S. Description: Ba/F3 cell viability (CellTiter-Glo), EGFR L858R/C797S. The conditions noted are these: Mus musculus, 72 hours. Type of test: cell-based, murine.
Test [3] deals with BaF3 ASV (EGFR exon 20 ASV Ins V769_D770). Nature of the test: Ba/F3 cell viability (CellTiter-Glo), EGFR exon 20 ASV Ins V769_D770. The format is cell-based, murine. The conditions noted are these: Mus musculus, Ba/F3 EGFR exon 20 ASV Ins V769_D770, 72 hours. The source says:
(§1) Cell lines are generated by transducing Ba/F3 cells with retroviruses containing vectors with EGFR WT, EGFR exon 20 NPG Ins D770_N771, EGFR exon 20 ASV Ins V769_D770, EGFR exon 20 SVD Ins D770_N771, or EGFR exon 20 FQEA Ins A763_V764 genes and a puromycin selection marker. Transduced cells are selected with puromycin for 7 days and are then be transferred into culture media without Interleukin 3 (IL3). EGFR WT cells are maintained with supplemental EGF. Surviving cells are confirmed to express EGFR by Western blot and maintained as a pool. The IC50 data are included in Table 6.
(§2) • 1 Cell seeding • 1.1 Cells are harvested from flask into cell culture medium and the cell number counted. • 1.2 Cells are diluted with culture medium to the desired density and 40 L of cell suspension is added into each well of 384-well cell culture plate and the seeding density is 600 cells/well. • 2 Compound preparation and treatment • 2.1 Test compounds are dissolved to 10 mM in a DMSO stock solution. 45 µL of stock solution is transferred to a 384 polypropylene plate (pp-plate). Perform 3-fold, 10-point dilution via transferring 15 L compound into 30 L DMSO using a TECAN (EVO200) liquid handler. • 2.2 Spin plates at room temperature at 1,000 RPM for 1 minute. • 2.3 Transfer 120 nL of diluted compound from compound source plate into the cell plate. • 2.4 After compound treatment for 72 hours, perform CTG detection for compound treatment plates as described in “Detection” section. • 3 Detection • 3.1 Plates are removed from incubators and equilibrated at room temperature for 15 minutes. • 3.2 Thaw the CellTiter Glo reagents and allow to equilibrate to room temperature before the experiment. • 3.3 Add 40 µL of CellTiter-Glo reagent into each well (at 1:1 to culture medium). Then place the plates at room temperature for 30 min followed by reading on EnVision. • 4 Data analysis • 4.1 Inhibition activity is calculated following the formula below:
(§3) [formula] • where HC is obtained from cells treated with 0.1% DMSO only; and LC is obtained from culture medium only. • 4.2 2. Calculate the IC50 by fitting the Curve using Xlfit (v5.3.1.3), equation 201:
(§4) [formula] • The IC50 date are included in Table 6.

Another test has as its system BaF3 WT (EGFR WT). Description: Ba/F3 cell viability (CellTiter-Glo), EGFR WT. The format is cell-based, murine. Conditions: Mus musculus, supplemental EGF, 72 hours.
Text: as §1, §2, §3, §4

The test system of test [4] is BaF3 NPG (EGFR exon 20 NPG Ins D770_N771). Nature of the test: Ba/F3 cell viability (CellTiter-Glo), EGFR exon 20 NPG Ins D770_N771. Conditions: Mus musculus, Ba/F3 EGFR exon 20 NPG Ins D770_N771, 72 hours. Type of test: cell-based, murine.
Text: as §1, §2, §3, §4

The test system of test [5] is EGFR phosphorylation (pEGFR) in CUTO14 cells. Description: Inhibitor activity on EGFR phosphorylation (pEGFR AlphaLISA), CUTO14 cells. The conditions noted are these: 2 hours. Type of test: cell-based. An excerpt:
EGFR mutant Ba/F3 cells were generated by transduction with retrovirus containing vectors expressing EGFR exon 20 NPG Ins D770_N771, EGFR exon 20 ASV Ins V769_D770, or EGFR exon 20 SVD Ins D770_N771 genes along with a puromycin selection marker. Transduced cells are selected with puromycin for 7 days and are then be transferred into culture media without Interleukin 3 (IL3). Surviving cells are confirmed to express EGFR by Western blot and maintained as a pool. CUTO14 cells were obtained from Dr. Robert C. Doebele at the University of Colorado. The IC50 data are included in Table 6.
• 1 Cell seeding • 1.1 Cells are harvested from flask into cell culture medium and the cell number counted. • 1.2 Cells are diluted with culture medium to the desired density and 40 μL of cell suspension is added into each well of 384-well cell culture plate and the seeding density is 50K cells/well (Ba/F3) or 12.5K cells/well (CUTO14). • 2 Compound preparation and treatment • 2.1 Test compounds are dissolved to 10 mM in a DMSO stock solution. 45 µL of stock solution is transferred to a 384 polypropylene plate (pp-plate). Perform 3-fold, 10-point dilution via transferring 15 L compound into 30 L DMSO using a TECAN (EVO200) liquid handler. • 2.2 Spin plates at room temperature at 1,000 RPM for 1 minute. • 2.3 Transfer 5 nL of diluted compound from compound source plate into the cell plate. • 2.4 After compound treatment for 2 hours, perform pEGFR detection by AlphaLISA for compound treatment plates as described in “Detection” section. • 3 Detection by pEGFR AlphaLISA (Perkin-Elmer) • 3.1 Plates are removed from incubators and equilibrated at room temperature for 10 minutes, and media was removed • 3.2 10 µL of lysis buffer is added and plates shaken at 600 rpm for 1 hr. • 3.3 Prepare acceptor mix just before use and dispense 5 μL of acceptor mix to all the wells. […] Mix well on the shaker, seal and wrap in aluminum foil and incubate 1.5 hrs at room temperature in the dark • 3.5 Transfer 18.5 μL mixture to OptiPlate 384, and read using an Envision.

For test [6], the system named is EGFR Del19 phosphorylation (pEGFR). Nature of the test: Inhibitor activity on EGFR phosphorylation (pEGFR AlphaLISA), Del19. The format is cell-based. Conditions: 2 hours.
Test [7] has as its system BaF3 SVD (EGFR exon 20 SVD Ins D770_N771). Nature of the test: Ba/F3 cell viability (CellTiter-Glo), EGFR exon 20 SVD Ins D770_N771. Type of test: cell-based, murine. The conditions noted are these: Mus musculus, Ba/F3 EGFR exon 20 SVD Ins D770_N771, 72 hours.
Text: as §1, §2, §3, §4

Another test relates to BaF3 L858R. Description: Ba/F3 cell viability (CellTiter-Glo), EGFR L858R. The conditions noted are these: Mus musculus, 72 hours. The format is cell-based, murine.
Test [8] deals with EGFR containing one or more mutations versus wild type EGFR. Conditions: compound of WO 2022/076831; cited from earlier work.

A word on the IC50: it is the midpoint of a concentration-inhibition curve. `COCCc1c[nH]c(=O)c2c(Nc3cccc(Cl)c3OC)c(-c3ccncn3)[nH]c12` [Compound 2]: the IC50 is under 100 nM in [1]; under 100 nM in test [2]; under 100 nM in the test with BaF3 Del19; under 100 nM in the test on BaF3 L858R/C797S; 100 to 1000 nM in test [3]; at least 1000 nM in the test on BaF3 WT (EGFR WT). Besides, the IC50 in [4] was 100 to 1000 nM; in test [5], under 100 nM; in [6], under 100 nM; in test [7] it was under 100 nM; in the test with BaF3 L858R it was under 100 nM.
With `COCCc1c[nH]c(=O)c2c(Nc3cccc(Cl)c3OC)c(-c3ccncc3F)[nH]c12` [Compound 3], the IC50 with BaF3 Del19 is under 100 nM; in test [3], 100 to 1000 nM; in the test with BaF3 WT (EGFR WT) it was at least 1000 nM; in test [7], 100 to 1000 nM; in the test on BaF3 L858R, under 100 nM.
On to `COCCc1c[nH]c(=O)c2c(Nc3cccc(F)c3OC)c(-c3ccnc(C)n3)[nH]c12` [Compound 4], for which the IC50 in test [1] was under 100 nM; in test [2] it was under 100 nM; in the test on BaF3 L858R/C797S it was under 100 nM; in test [3], 100 to 1000 nM; in the test on BaF3 WT (EGFR WT) it was at least 1000 nM; in test [4], 100 to 1000 nM. The values for the IC50 in test [5], in test [6] and in test [7] were under 100 nM, under 100 nM and 100 to 1000 nM, respectively.
As to `COc1c(Cl)cccc1Nc1c(-c2ccnc(C)n2)[nH]c2c(CCO)c[nH]c(=O)c12` [Compound 5], the IC50 in test [1] was under 100 nM; in test [2] it was under 100 nM; with BaF3 Del19 it was under 100 nM; in the test on BaF3 L858R/C797S, 100 to 1000 nM; in [3] it was 100 to 1000 nM; in the test on BaF3 WT (EGFR WT), at least 1000 nM. Also, the IC50 in [4] is 100 to 1000 nM; in test [5], 100 to 1000 nM; in test [6] it was under 100 nM; in [7] it was 100 to 1000 nM; in the test with BaF3 L858R, under 100 nM.
Consider `COc1c(F)cccc1Nc1c(-c2ccnc(C)n2)[nH]c2c(CCO)c[nH]c(=O)c12` [Compound 6], for which the IC50 in [1] was 100 to 1000 nM; in test [2] it was under 100 nM; in the test with BaF3 L858R/C797S, 100 to 1000 nM; in test [3] it was at least 1000 nM; with BaF3 WT (EGFR WT), at least 1000 nM; in test [4] it was 100 to 1000 nM. The half-maximal inhibitory concentration (IC50) is under 100 nM in [6] and 100 to 1000 nM in [7].
Take `COCC[C@H]1CNC(=O)c2c1[nH]c(-c1ccnc(C)n1)c2Nc1cccc(Cl)c1OC` [Compound 463b]: the “inhibition of mutant EGFR relative to wild type EGFR” value in test [8] is recorded as “greater inhibition of EGFR containing one or more mutations relative to inhibition of wild type EGFR”.

(Values after patent US20260297088A1, “A 1,5-DIHYDRO-4H-PYRROLO[3,2-C] PYRIDIN-4-ONE FOR USE IN THE TREATMENT OF CANCER” (ANTARES THERAPEUTICS, INC., priority 2023, published 2026).)
